Test results: US20140343000A1 (priority 2011, published 2014)
pEC50: −log10 of the molar value.

The molecules below were run on recombinant NL4-3 virus (Renilla luciferase in nef, Gag P373S; NLRluc) in MT-2 cells (assay: whole plant or invertebrate). Conditions: Renilla, NL43, luciferase activity in cells infected for 4-5 days with NLRluc recombinants, serial dilutions of inhibitor; class symbols (key in Table 1); read-out: EC50.
Type: cell-based, HIV
Procedure, shortened: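 MT-2 cells infected 4–5 days with NL4-3 carrying Renilla luciferase in nef and Gag P373S, with serial dilutions of inhibitor present. Antiviral activity quantified by luciferase activity, using Dual Luciferase reagents premixed with lysis buffer and read immediately.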
With `C=C(C)[C@@H]1CC[C@]2(NC(N)=O)CC[C@]3(C)[C@H](CC[C@@H]4[C@@]5(C)CC=C(c6ccc(C(=O)O)cc6)C(C)(C)[C@@H]5CC[C@]43C)[C@@H]12` [Example 69-1, 4-((1R,3aS,5aR,5bR,7aR,11aS,11bR,13aR,13bR)-5a,5b,8,8,11a-pentamethyl-1-(prop-1-en-2-yl)-3a-ureido-2,3,3a,4,5,5a,5b,6,7,7a,8,11,11a,11b,12,13,13a,13b-octadecahydro-1H-cyclopenta[a]chrysen-9-yl)benzoic acid] the pEC50 was > 7.00.
For `C=C(C)[C@@H]1CC[C@]2(NC(=O)OCCCN3CCS(=O)(=O)CC3)CC[C@]3(C)[C@H](CC[C@@H]4[C@@]5(C)CC=C(c6ccc(C(=O)O)cc6)C(C)(C)[C@@H]5CC[C@]43C)[C@@H]12` [Example 70, benzoic acid, 4-[(1R,3aS,5aR,5bR,7aR,11aS,11bR,13aR,13bR)-3a-[[[3-(1,1-dioxido-4-thiomorpholinyl)propoxy]carbonyl]amino]2,3,3a,4,5,5a,5b,6,7,7a,8,11,11a,11b,12,13,13a,13b-octadecahydro-5a,5b,8,8,11a-pentamethyl-1-(1-methylethenyl)-1H-cyclopenta[a]chrysen-9-yl]], the pEC50 was > 7.00.
With `C=C(C)[C@@H]1CC[C@]2(NC(=O)OCCN3CCS(=O)(=O)CC3)CC[C@]3(C)[C@H](CC[C@@H]4[C@@]5(C)CC=C(c6ccc(C(=O)O)cc6)C(C)(C)[C@@H]5CC[C@]43C)[C@@H]12` [Example 71, benzoic acid, 4-[(1R,3aS,5aR,5bR,7aR,11aS,11bR,13aR,13bR)-3a-[[[2-(1,1-dioxido-4-thiomorpholinyl)ethoxy]carbonyl]amino]-2,3,3a,4,5,5a,5b,6,7,7a,8,11,11a,11b,12,13,13a,13b-octadecahydro-5a,5b,8,8,11a-pentamethyl-1-(1-methylethenyl)-1H-cyclopenta[a]chrysen-9-yl]] the pEC50 was > 7.00.
For `C=C(C)[C@@H]1CC[C@]2(NC(=O)OCCCCN3CCS(=O)(=O)CC3)CC[C@]3(C)[C@H](CC[C@@H]4[C@@]5(C)CC=C(c6ccc(C(=O)O)cc6)C(C)(C)[C@@H]5CC[C@]43C)[C@@H]12` [Example 72, benzoic acid, 4-[(1R,3aS,5aR,5bR,7aR,11aS,11bR,13aR,13bR)-3a-[[[4-(1,1-dioxido-4-thiomorpholinyl)butoxy]carbonyl]amino]-2,3,3a,4,5,5a,5b,6,7,7a,8,11,11a,11b,12,13,13a,13b-octadecahydro-5a,5b,8,8,11a-pentamethyl-1-(1-methylethenyl)-1H-cyclopenta[a]chrysen-9-yl]], the pEC50 was > 7.00.
For `C=C(C)[C@@H]1CC[C@]2(NC(=O)CCN(C)C)CC[C@]3(C)[C@H](CC[C@@H]4[C@@]5(C)CC=C(c6ccc(C(=O)O)cc6)C(C)(C)[C@@H]5CC[C@]43C)[C@@H]12` [Example 73, 4-((1R,3aS,5aR,5bR,7aR,11aS,11bR,13aR,13bR)-3a-(3-(dimethylamino)propanamido)-5a,5b,8,8,11a-pentamethyl-1-(prop-1-en-2-yl)-2,3,3a,4,5,5a,5b,6,7,7a,8,11,11a,11b,12,13,13a,13b-octadecahydro-1H-cyclopenta[a]chrysen-9-yl)benzoic acid], the pEC50 was > 7.00.
For `C=C(C)[C@@H]1CC[C@]2(NC(=O)CCCN(C)C)CC[C@]3(C)[C@H](CC[C@@H]4[C@@]5(C)CC=C(c6ccc(C(=O)O)cc6)C(C)(C)[C@@H]5CC[C@]43C)[C@@H]12` [Example 74, 4-((1R,3aS,5aR,5bR,7aR,11aS,11bR,13aR,13bR)-3a-(4-(dimethylamino)butanamido)-5a,5b,8,8,11a-pentamethyl-1-(prop-1-en-2-yl)-2,3,3a,4,5,5a,5b,6,7,7a,8,11,11a,11b,12,13,13a,13b-octadecahydro-1H-cyclopenta[a]chrysen-9-yl)benzoic acid], the pEC50 was > 7.00.
For `C=C(C)[C@@H]1CC[C@]2(NC(=O)CCc3nccn3C)CC[C@]3(C)[C@H](CC[C@@H]4[C@@]5(C)CC=C(c6ccc(C(=O)O)cc6)C(C)(C)[C@@H]5CC[C@]43C)[C@@H]12` [Example 75, 4-((1R,3aS,5aR,5bR,7aR,11aS,11bR,13aR,13bR)-5a,5b,8,8,11a-pentamethyl-3a-(3-(1-methyl-1H-imidazol-2-yl)propanamido)-1-(prop-1-en-2-yl)-2,3,3a,4,5,5a,5b,6,7,7a,8,11,11a,11b,12,13,13a,13b-octadecahydro-1H-cyclopenta[a]chrysen-9-yl)benzoic acid], the pEC50 was > 7.00.
For `C=C(C)[C@@H]1CC[C@]2(NC(=O)C(=O)N(C)C)CC[C@]3(C)[C@H](CC[C@@H]4[C@@]5(C)CC=C(c6ccc(C(=O)O)cc6)C(C)(C)[C@@H]5CC[C@]43C)[C@@H]12` [Example 76, 4-((1R,3aS,5aR,5bR,7aR,11aS,11bR,13aR,13bR)-3a-(2-(dimethylamino)-2-oxoacetamido)-5a,5b,8,8,11a-pentamethyl-1-(prop-1-en-2-yl)-2,3,3a,4,5,5a,5b,6,7,7a,8,11,11a,11b,12,13,13a,13b-octadecahydro-1H-cyclopenta[a]chrysen-9-yl)benzoic acid], the pEC50 was > 7.00.
In the case of `C=C(C)[C@@H]1CC[C@]2(NC(=O)Cc3nnn[nH]3)CC[C@]3(C)[C@H](CC[C@@H]4[C@@]5(C)CC=C(c6ccc(C(=O)O)cc6)C(C)(C)[C@@H]5CC[C@]43C)[C@@H]12` [Example 77, 4-((1R,3aS,5aR,5bR,7aR,11aS,11bR,13aR,13bR)-3a-(2-(1H-tetrazol-5-yl)acetamido)-5a,5b,8,8,11a-pentamethyl-1-(prop-1-en-2-yl)-2,3,3a,4,5,5a,5b,6,7,7a,8,11,11a,11b,12,13,13a,13b-octadecahydro-1H-cyclopenta[a]chrysen-9-yl)benzoic acid], the pEC50 was > 7.00.
With `C=C(C)[C@@H]1CC[C@]2(NC(=O)C(=O)Nc3nncs3)CC[C@]3(C)[C@H](CC[C@@H]4[C@@]5(C)CC=C(c6ccc(C(=O)O)cc6)C(C)(C)[C@@H]5CC[C@]43C)[C@@H]12` [Example 78, 4-((1R,3aS,5aR,5bR,7aR,11aS,11bR,13aR,13bR)-3a-(2-(1,3,4-thiadiazol-2-ylamino)-2-oxoacetamido)-5a,5b,8,8,11a-pentamethyl-1-(prop-1-en-2-yl)-2,3,3a,4,5,5a,5b,6,7,7a,8,11,11a,11b,12,13,13a,13b-octadecahydro-1H-cyclopenta[a]chrysen-9-yl)benzoic acid] the pEC50 was > 7.00.
For `C=C(C)[C@@H]1CC[C@]2(NC(=O)C(=O)Nc3nccs3)CC[C@]3(C)[C@H](CC[C@@H]4[C@@]5(C)CC=C(c6ccc(C(=O)O)cc6)C(C)(C)[C@@H]5CC[C@]43C)[C@@H]12` [Example 79, 4-((1R,3aS,5aR,5bR,7aR,11aS,11bR,13aR,13bR)-5a,5b,8,8,11a-pentamethyl-3a-(2-oxo-2-(thiazol-2-ylamino)acetamido)-1-(prop-1-en-2-yl)-2,3,3a,4,5,5a,5b,6,7,7a,8,11,11a,11b,12,13,13a,13b-octadecahydro-1H-cyclopenta[a]chrysen-9-yl)benzoic acid], the pEC50 was > 7.00.
For `C=C(C)[C@@H]1CC[C@]2(NC(=O)CCN3CCS(=O)(=O)CC3)CC[C@]3(C)[C@H](CC[C@@H]4[C@@]5(C)CC=C(c6ccc(C(=O)O)cc6)C(C)(C)[C@@H]5CC[C@]43C)[C@@H]12` [Example 81, benzoic acid, 4-[(1R,3aS,5aR,5bR,7aR,11aS,11bR,13aR,13bR)-3a-[[3-(1,1-dioxido-4-thiomorpholinyl)-1-oxopropyl]amino]-2,3,3a,4,5,5a,5b,6,7,7a,8,11,11a,11b,12,13,13a,13b-octadecahydro-5a,5b,8,8,11a-pentamethyl-1-(1-methylethenyl)-1H-cyclopenta[a]chrysen-9-yl]], the pEC50 was > 7.00.
In the case of `C=C(C)[C@@H]1CC[C@]2(NC(=O)CN3CCS(=O)(=O)CC3)CC[C@]3(C)[C@H](CC[C@@H]4[C@@]5(C)CC=C(c6ccc(C(=O)O)cc6)C(C)(C)[C@@H]5CC[C@]43C)[C@@H]12` [Example 82, benzoic acid, 4-[(1R,3aS,5aR,5bR,7aR,11aS,11bR,13aR,13bR)-3a-[[(1,1-dioxido-4-thiomorpholinyl)acetyl]amino]-2,3,3a,4,5,5a,5b,6,7,7a,8,11,11a,11b,12,13,13a,13b-octadecahydro-5a,5b,8,8,11a-pentamethyl-1-(1-methylethenyl)-1H-cyclopenta[a]chrysen-9-yl]], the pEC50 was > 7.00.
`C=C(C)[C@@H]1CC[C@]2(NC(=O)CN3C[C@@H](C)O[C@@H](C)C3)CC[C@]3(C)[C@H](CC[C@@H]4[C@@]5(C)CC=C(c6ccc(C(=O)O)cc6)C(C)(C)[C@@H]5CC[C@]43C)[C@@H]12` [Example 83, 4-((1R,3aS,5aR,5bR,7aR,11aS,11bR,13aR,13bR)-3a-(2-((2S,6R)-2,6-dimethylmorpholino)acetamido)-5a,5b,8,8,11a-pentamethyl-1-(prop-1-en-2-yl)-2,3,3a,4,5,5a,5b,6,7,7a,8,11,11a,11b,12,13,13a,13b-octadecahydro-1H-cyclopenta[a]chrysen-9-yl)benzoic acid] was tested, and the pEC50 was > 7.00.

Same assay, conditions: Renilla, NL43, luciferase activity in cells infected for 4-5 days with NLRluc recombinants, serial dilutions of inhibitor; numeric values; read-out: EC50
For `C=C(C)[C@@H]1CC[C@]2(NC(=O)C(=O)NC3CCCCC3)CC[C@]3(C)[C@H](CC[C@@H]4[C@@]5(C)CC=C(c6ccc(C(=O)O)cc6)C(C)(C)[C@@H]5CC[C@]43C)[C@@H]12` [Example 80, 4-((1R,3aS,5aR,5bR,7aR,11aS,11bR,13aR,13bR)-3a-(2-(cyclohexylamino)-2-oxoacetamido)-5a,5b,8,8,11a-pentamethyl-1-(prop-1-en-2-yl)-2,3,3a,4,5,5a,5b,6,7,7a,8,11,11a,11b,12,13,13a,13b-octadecahydro-1H-cyclopenta[a]chrysen-9-yl)benzoic acid], the pEC50 was 6.96.
